pIC50: −log10 of the molar value.
Assays:
3T3 cells = assay: MTT cell proliferation assay; format: cell-based; conditions: Mus musculus, NIH3T3, approximately 64-72 hours
Summary of the method: (§1)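 Cells seeded at 5,000-10,000 per well attached overnight, then received eight compound concentrations from 1 nM to 30 μM. Viability was measured by MTT (about 4 h) with OD read at 490 nm. Percent inhibition versus negative control, mostly from duplicates, was reported as mean±SE.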

MM1S cells = assay: MTT cell proliferation assay; format: cell-based; conditions: Homo sapiens, MM1.S, approximately 64-72 hours
Summary of the method: as §1

XPO1 = target: T1, XPO1 (Homo sapiens, UniProt O14980); assay: XPO1 degradation assay in HT1080 cells (Western blot); format: cell-based; conditions: five concentrations, 24 hours
T1 construct: endogenous in cells; host or cells: HT1080 (fibrosarcoma) cells
Source text: Western blot analysis of cellular lysates of the treated cells was used to determine the protein expression of XPO1. Beta-actin was used as a loading control.

[1] = system: anti-collagen antibody-induced arthritis; assay: Collagen antibody-induced arthritis (CAIA) mouse model; format: in vivo
Protocol: On study Day 0 (study commencement), all mice were subjected to a 4 mg intravenous injection of ArthritoMAb™ antibody cocktail (MD Biosciences #51306001), followed by an intraperitoneal injection of LPS (50 μg/mouse) on study Day 3. The mice began treatment on Day 6, when the average clinical scores reached 2.
The animals were examined for signs of arthritis on study Day 0 in all paws (front left and right paws, hind left and right paws). The signs of arthritis on study Day 0 served as a baseline for the arthritis clinical score parameter. Arthritic responses were examined daily from Day 3 until Day 8, and on Days 10, 12, 15 and 18 (study termination).
Clinical signs data are presented as means±SEM (standard error of the mean). Treatment groups 2-3 were compared to vehicle group 1 using one-way ANOVA test followed by Tukey post-test. A p value of <0.05 is considered to represent a significant difference.

MDA-MB-468 xenograft = MDA-MB-468 xenograft model; format: in vivo, mouse; conditions: 10 mg/kg PO once daily, CB-17 SCID mice, compared to vehicle
Protocol: MDA-MB-468 (ATCC #HTB-102) breast adenocarcinoma cells were obtained from ATCC. These cells were grown in high glucose DMEM medium supplemented with 10% fetal bovine serum, 1% penicillin and streptomycin, and 2 mM L-Glutamine. Cells were sub-cultured by dilution at a ratio of 1:4. MDA-MB-468 cells were harvested by trypsinization and counted using a hemocytometer. Cells were resuspended in PBS at a concentration of 4×10^8 cells per mL. Cells were placed on ice and mixed with an equal volume of Matrigel (BD Biosciences CB-40234). Twenty-two (22) CB-17 SCID mice were inoculated sub-cutaneously in the left flank with 4×10^7 MDA-MB-468 cells. Treatment was initiated when the tumors reached a mean volume of ˜100 mm^3. […] Animals' weights and condition were recorded daily, and tumors were measured on Mondays, Wednesdays, and Fridays.

Z-138 xenograft = assay: Z-138 mantle cell lymphoma xenograft model; format: in vivo, mouse
Protocol: Z-138 (ATCC #CRL-3001) mantle cell lymphoma cells were obtained from ATCC. These cells were grown in IMEM medium supplemented with 10% horse serum, 1% penicillin and streptomycin, and 2 mM L-glutamine. Cells were sub-cultured by dilution at a ratio of 1:5 to 1:10. Z-138 cells were harvested by centrifugation and counted using a hemocytometer. Cells were resuspended in PBS at a concentration of 2×10^8 cells per mL. Cells were placed on ice and mixed with an equal volume of Matrigel (BD Biosciences CB-40234). This mixture was kept on ice and injected into the left flank of mice in a volume of 0.2 mL, equivalent to 2×10^7 cells per mouse. Thirty-two (32) CB-17 SCID mice were inoculated subcutaneously in the left flank with 2×10^7 Z-138 cells. Treatment was initiated when the tumors reached a mean volume of 125.2 mm^3. Mice were allocated to four (4) groups of eight (8) mice such that mean tumor volume in each group was within the range of 106.5 to 138.8 mm^3. […] Animal weights and conditions were recorded daily, and tumors were measured on Mondays, Wednesdays and Fridays.

COLO 205 xenograft = assay: COLO 205 colorectal carcinoma xenograft model; format: in vivo, mouse
Protocol: COLO 205 (CCL-222) colorectal cancer cells were obtained from ATCC. These cells were grown in RPMI-1640 medium supplemented with 10% fetal bovine serum, 1% penicillin and streptomycin. Cells were sub-cultured by transferring floating cells to a new flask and trypsinizing adherent cells before sub-culturing at a ratio of 1:4. COLO 205 cells were harvested by centrifugation and counted using a hemocytometer. Cells were resuspended in PBS at a concentration of 5×10^7 cells per mL. Cells were placed on ice, and then mixed with an equal volume of Matrigel™ (BD Biosciences CB-40234). This mixture was kept on ice and injected into the left flank of mice in a volume of 0.2 mL, equivalent to 5×10^6 cells per mouse. Thirty-two (32) SCID mice were inoculated subcutaneously in the left flank with 5×10^6 COLO 205 cells. Treatment was initiated when the tumors reached a mean volume of 103.7 mm^3 (standard deviation±30 mm^3, range 17-183 mm^3). Mice were allocated to four (4) groups of eight (8) mice such that mean tumor volume in each group was within the range of 95 to 104 mm^3. […] With the exception of 5-FU (which was given IP on days 1 and 3), all compounds were given by oral gavage. […] Animal weights and conditions were recorded daily, and tumors were measured on Mondays, Wednesdays and Fridays.

T1 sequence (O14980 whole entry): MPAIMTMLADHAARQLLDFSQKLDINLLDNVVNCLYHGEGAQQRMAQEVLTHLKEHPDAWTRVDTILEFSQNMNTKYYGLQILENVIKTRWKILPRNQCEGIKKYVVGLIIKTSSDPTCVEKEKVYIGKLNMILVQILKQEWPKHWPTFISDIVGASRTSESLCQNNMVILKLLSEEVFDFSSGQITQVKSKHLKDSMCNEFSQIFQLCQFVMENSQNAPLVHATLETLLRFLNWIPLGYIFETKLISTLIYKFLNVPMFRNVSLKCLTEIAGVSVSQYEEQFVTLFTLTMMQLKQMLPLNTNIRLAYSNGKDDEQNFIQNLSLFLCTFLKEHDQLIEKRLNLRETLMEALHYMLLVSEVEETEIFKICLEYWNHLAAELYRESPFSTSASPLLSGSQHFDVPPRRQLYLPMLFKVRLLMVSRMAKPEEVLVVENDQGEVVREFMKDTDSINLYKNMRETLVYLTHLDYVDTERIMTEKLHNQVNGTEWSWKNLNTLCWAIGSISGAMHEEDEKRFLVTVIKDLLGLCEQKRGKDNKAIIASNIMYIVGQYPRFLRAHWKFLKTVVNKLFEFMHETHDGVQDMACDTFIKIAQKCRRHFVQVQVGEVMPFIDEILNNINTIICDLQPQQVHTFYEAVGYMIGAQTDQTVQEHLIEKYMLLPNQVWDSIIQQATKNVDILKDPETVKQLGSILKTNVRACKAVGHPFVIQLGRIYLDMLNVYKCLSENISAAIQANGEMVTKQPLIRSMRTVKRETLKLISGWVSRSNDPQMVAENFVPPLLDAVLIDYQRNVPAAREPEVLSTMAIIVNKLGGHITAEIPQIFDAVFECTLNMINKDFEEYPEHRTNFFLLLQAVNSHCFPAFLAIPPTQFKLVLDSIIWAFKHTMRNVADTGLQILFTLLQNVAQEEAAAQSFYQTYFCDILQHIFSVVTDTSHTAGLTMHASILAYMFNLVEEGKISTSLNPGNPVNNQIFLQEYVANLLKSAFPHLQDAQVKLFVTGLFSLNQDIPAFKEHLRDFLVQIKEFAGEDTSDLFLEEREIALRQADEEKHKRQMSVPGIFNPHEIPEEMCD

In the case of `NC(=O)/C(=C/n1cnc(-c2cc(C(F)(F)F)cc(C(F)(F)F)c2)n1)c1cncnc1` [Compound 124, (E)-3-(3-(3,5-bis(trifluoromethyl)phenyl)-1H-1,2,4-triazol-1-yl)-2-(pyrimidin-5-yl)acrylamide], the pIC50 (3T3 cells) was 4.52 to 5.30, the pIC50 (MM1S cells) was > 7.00 and the “protein expression of XPO1” value (XPO1) was “degraded XPO1 in a dose-dependent manner”. For the same compound, the “percentage of animals that showed clinical signs of arthritis” value (shortened to “percentage”) ([1]; 20 mg/kg PO twice a week, study Day 6 (start of treatment)) was 78%, the “percentage” value ([1]; 20 mg/kg PO twice a week, study Day 18) was 22% and the “mean clinical score for all paws (arthritis scores)” value ([1]; 20 mg/kg or 40 mg/kg PO, compared to vehicle) was “reduced arthritis scores”. For the same compound, the “percentage” value ([1]; 40 mg/kg PO twice a week, study Day 6 (start of treatment)) was 88%, the “percentage” value ([1]; 40 mg/kg PO twice a week, study Day 18) was 13% and the mean tumor volume (MDA-MB-468 xenograft) was “mean tumor volume was reduced”. The “mean tumor volume compared with standard of care” value (Z-138 xenograft; 15 mg/kg PO daily, versus cyclophosphamide) was “compared favorably”, the mean tumor volume (Z-138 xenograft; 5 or 15 mg/kg PO daily, CB-17 SCID mice, compared to vehicle) was “mean tumor volume was reduced” and the mean tumor volume (COLO 205 xenograft; 5 or 15 mg/kg PO daily, SCID mice, compared to vehicle) was “mean tumor volume was reduced”. For the same compound, the “mean tumor volume compared with standard of care” value (COLO 205 xenograft; particularly 15 mg/kg PO daily, versus 5-FU) was “compared favorably”.
